Entries after “also recorded” stand apart in the source; their conditions may differ.
Legend:
Type in all cases: in vivo, mouse
Tsc2+/- mice [1] = assay: Fear conditioning test; conditions: two-and-a-half-day treatment, last dose 3 hours before training
Text: (§1) To determine the effects of eNMDAR antagonists on the brain histology of Tsc2^+/− mice, quantitative confocal immunohistochemistry was used to analyze coronal brain slices from 3-month-old wild-type (WT) and Tsc2^+/− mice that had been treated for two and a half days with vehicle, memantine or NitroSynapsin. Tsc2+/− mice on the C57Bl/6J background received via the intraperitoneal route either vehicle or a loading dose of 92 μmol/kg of memantine or NitroSynapsin, followed by 4.6 μmol/kg of drug twice daily for two-and-a-half-days, with the last dose 3 hours prior to the behavioral training session (for a total of five drug injections). This dosing regimen yields an effective concentration of drug at NMDARs in the brain of 1-10 μM.
Fear conditioning tests were performed on three-month-old Tsc2^+/+ and Tsc2^+/− mice to explore the effects of eNMDAR antagonists on anxiety, and learning and memory deficits in Tsc2^+/− mice. Vehicle, memantine or NitroSynapsin were administered for two and a half days, with the last dose of drug occurring 3-hours prior to the first training session. […] Freezing time of three-month-old WT and Tsc2^+/− transgenic mice treated with vehicle, memantine or NitroSynapsin in fear-conditioning trials. […] Values are mean+s.e.m. (n=7-12 mice per group). […]

Mef2c-het mice [2] = assay: Immunohistochemistry and stereological cell counting in hippocampus after chronic treatment
Text: (§2) Mef2c heterozygous knockout (Mef2c-het) mice were created by crossing mice carrying the conventional exon 2-deleted allele of Mef2c (Mef2c^Δ2) with their WT littermates. All procedures for maintaining and using these mice were approved by the Institutional Animal Care and Use Committee (IACUC) at the Sanford Burnham Prebys Medical Discovery Institute. In this study, only male mice were used for the behavioral assays to insure uniformity (either with or without drug treatment). Chronic treatment with memantine, NitroSynapsin (both at 4.6 μmol/kg body weight) or vehicle (PBS) was administered via i.p. injection, twice a day for at least 3 months, starting at ˜2.5 weeks of age. This age was chosen because mice are still juveniles and thus treatment could begin in human at an equivalent stage.
Mice were perfused with PBS buffer and then 2% paraformaldehyde in PBS (PFA).
After perfusion, brains were removed and placed into 2% PFA overnight for post-fixation and then sunk in 30% sucrose in PBS prior to freezing. Cryostat sections were cut at a thickness of 15 μm. Sections were soaked in Antigen Unmasking Solution (Vector) and microwaved for 30 s, followed by permeabilization with 0.25% Triton X-100 in PBS for 15 min. Primary antibodies were incubated for 16 h at 4° C. and fluorescence-conjugated secondary antibodies for 2 h at 25° C. Numerous unstained cells in each field served as an internal control for staining specificity. Primary antibodies included: NeuN (mouse, EMD Millipore), activated caspase-3 (rabbit, Cell Signaling), VGLUT1 (guinea pig, SYSY), VGLUT2 (rabbit, SYSY), VGAT (mouse, SYSY), synaptophysin (mouse, Sigma), GFAP (mouse, Sigma), PCNA (mouse, Santa Cruz), DCX (goat, Santa Cruz). TUNEL assay was performed to assess apoptosis using the Roche In Situ Cell Death Detection Kit per vender's instruction. The number of cells positive or percent area occupied by NeuN, activated caspase-3, TUNEL, GFAP, PCNA, or DCX was counted in specific brain regions using an optical dissector, or estimated by quantitative confocal immunohistochemistry or optical density, as described previously.

Mef2c-het mice [3] = assay: Hole-board exploration test; conditions: chronic treatment
Text: as §2
The apparatus consisted of a Plexiglas cage (32×32×30 cm) with 16 holes in a format of 4×4 (each 3 cm in diameter) equally spaced on an elevated floor. The explorative activity including the number of head-dips and the time spent head-dipping were measured for 5 min.

Tsc2+/- mice [4] = assay: Quantitative confocal immunohistochemistry of synaptophysin (SY38) in hippocampus; conditions: i.p. loading 92 μmol/kg then 4.6 μmol/kg twice daily, two and a half days
Text: as §1, with “eNMDAR” left out, “Tsc2^+/-” for “Tsc2^+/−”, “Tsc2+/-” for “Tsc2+/−”

Mef2c-het mice [5] = assay: Morris water maze (spatial learning and memory)
Text: as §2
We tested spatial reference learning and memory using a version of the conventional Morris water maze. The mice were trained to swim to a platform 14 cm in diameter and submerged 1.5 cm beneath the surface of the water. The platform was invisible to the mice while swimming. […] Mice were given 4 trials a day for as many days as necessary to reach the criterion (<20 s mean escape latency). Retention of spatial training was assessed 24 h after the last training trial. Both probe trials consisted of a 60-s free swim in the pool without the platform. The ANY-maze video tracking system (Stoelting Co.) was used to videotape all trials for automated analysis.

**Q.** Which results are given for `CCC12CC3(N)CC(CC)(C1)CC(O[N+](=O)[O-])(C3)C2` [NitroSynapsin]?
**A.** context discrimination (freezing time, training vs novel context) (Tsc2+/- mice [1]): all improved; also recorded: normalizing context discrimination; also recorded: improved the ability to discriminate context in Tsc2^+/− mice to normal WT levels; also recorded: normalized context discrimination; PV-immunoreactive synapses (% area) (Mef2c-het mice [2]): significantly increased; also recorded: significantly ameliorated; TUNEL-positive neurons, hippocampal CA3 (Mef2c-het mice [2]): reduced back to normal; also recorded: ameliorated in Het/N mice; VGAT immunoreactivity in hippocampus (Mef2c-het mice [2]): normalized; also recorded: rescue; VGLUT1 immunoreactivity in hippocampus (Mef2c-het mice [2]): unaltered; VGLUT2 immunoreactivity in hippocampus (Mef2c-het mice [2]): normalized; also recorded: rescue; activated caspase-3-positive neurons, hippocampal CA3 (Mef2c-het mice [2]): reduced back to normal; also recorded: ameliorated in Het/N mice; number of GFAP+ cells (astrocytes) in hippocampus (Mef2c-het mice [2]): normalized the number of GFAP+ cells; also recorded: restored to WT levels; ratio of VGLUT1/VGAT (Mef2c-het mice [2]): normalized; also recorded: rescue; ratio of VGLUT2/VGAT (Mef2c-het mice [2]): normalized; also recorded: rescue; total number of NeuN+ cells in hippocampus (Mef2c-het mice [2]; optical dissector): significantly greater than in Het/V mice; also recorded: significantly greater effect of NitroSynapsin over memantine; also recorded: significantly greater than in vehicle (V)-treated mice; also recorded: rescue; head-dips per hole (repetitive behavior) (Mef2c-het mice [3]): corrected the abnormal repetitive behavior; synaptophysin (SY38) staining in hippocampus (% area) (Tsc2+/- mice [4]): all improved; also recorded: significantly more staining; also recorded: reversed the synaptic loss; also recorded: raised the synaptic signal to WT levels; latency of finding hidden platform during training sessions (Mef2c-het mice [5]; Mef2c-het mice, 4.6 μmol/kg i.p. twice a day, 3 months): improved performance relative to vehicle; probe test, time in target vs opposite quadrant (memory retention) (Mef2c-het mice [5]; Mef2c-het mice, 4.6 μmol/kg i.p. twice a day, 3 months, 24 h after last training): normalized memory function; also recorded: rescued this effect; effect on Morris water maze in WT mice (Mef2c-het mice [5]; WT mice, 3-month treatment): no effects

Reference: US11529319B2, “Methods and compositions for treating neurological conditions” (priority 2017, dated 2022)
